Assay results: US20150158914A1, “PEPTIDES, CONSTRUCTS AND USES THEREFOR” (priority 2010, published 2015)
“Also recorded” adds a separate entry of the source. Ends that are not written are not given here. * marks the point of attachment. FITC = O=C1OC2(c3ccc(O)cc3Oc3cc(O)ccc32)c2ccc(NC(=S)*)cc21

Legend:
[1] = molecular target: T1, X-protein N-terminal peptide 1-50 (Hepatitis B virus genotype C subtype adr, UniProt Q81163, DEL44-44/P38S/S41A/S42F/V5L); assay: Peptide binding assay: FITC-peptides on peptide 1-50-coated plates; conditions: FITC-peptide at 10, 20, 40 μg/ml, 30 min
T1 construct: The parent peptide containing aa 1-50 conjugated N-terminally to a biotin tag; purchased; host or cells: chemical synthesis
Description: Qligomerization peptides were received in powdered form, and were weighed and diluted in a sterile 10% DMSO solution to make a 10 mg/ml stock solution. The wells of a Reactibind neutravidin-coated 96 well plate (Thermoscientific cat #15507) were thrice washed with 200 μl of plate washing buffer. Peptide 1-50, which contains a biotin tag, was diluted to 10 μg/ml in wash buffer and 100 μl of the solution was placed into each well being used. The plate was incubated at room temperature for 2 h, and the wells washed thrice with 200 μl of wash buffer. Truncated fluorescent variants of peptide 1-50 at 40 μg/ml, 20 μg/ml, and 10 μg/ml were added to the wells in triplicate, and the plates incubated at room temperature for 30 min. The wells were then washed thrice with 200 μl of wash buffer under low light conditions, and the plate read on a Biotek fluorescent plate reader at an excitation wavelength of 490 nm and an emission wavelength of 520 nm.
A ligand-binding assay was performed using streptavidin-coated plates in order to define the minimum peptide motif needed for dimerization of the X-protein. In this scenario the X-protein monomer serves as its own ligand. […] A series of short peptides from the region encoding aa 1-50 were synthesized. The parent peptide containing aa 1-50 conjugated N-terminally to a biotin tag was added to the streptavidin coated plates. […] Non-biotinylated peptides encoding aa 1-20, 16-35, 21-40 and 34-53 were added at 10, 20, and 40 μg/ml to the wells coated with peptide aa 1-50. The smaller peptides were each conjugated to a FITC tag for detection using a fluorescent plate reader. […] Binding performed with lesser concentrations of the peptides was not significant. Even smaller peptides encompassing that region 16-35 were made to determine whether the aa 16-35 was the minimum peptide motif needed for X-protein dimerization. These peptides synthesized, namely aa 16-26, 16-24, and 16-22 were analyzed using the same peptide binding assay. […] Thus of the peptides examined, the minimal peptide motif needed for dimerization of the X-protein is the […] peptide 16-35.

[2] = tested on: HepG2 cells; assay: Pathway of peptide entry: pretreatment with cytochalasin D or heparin; format: cell-based, human; conditions: 30 min pretreatment, 10 μM peptide, 3 h; for effect of heparin pretreatment on peptide entry: 2 μg/ml heparin
Description: Cells were plated overnight at 1×10^5 per well in eight chamber slides in complete MEM medium containing 10% FCS. The cells were washed thrice with MEM medium, and pretreated for 30 min with either 10 μm cytochalasin D or 2 μg/ml of heparin in MEM at 37° C. Peptide was then added at a concentration of 10 μM and cells were incubated for 3 h at 37° and 5% CO2. The cells were washed with PBS, fixed with 4% formaldehyde and PBS for 30 min, and a drop of Prolong Gold antifade reagent with DAPI (Invitrogen cat# P36931) was added to each well. The slides were dried overnight in the dark, and examined by microscopy by using a Nikon E600 fluorescent microscope. Photos were taken using Nikon ACT-1 software.
Exactly how cell-permeable peptides pass through the plasma membrane of cells is still not fully understood. […] Actin elongation on the cell surface leads to an extension of the plasma membrane into the extracellular environment. When the plasma membrane fuses back with itself it forms macropinosomes, and in doing so encapsulates and internalizes a large volume of extracellular fluid. Another mechanism is via the binding of peptides to cell surface heparan sulphate proteoglycans, which leads to internalization of the peptide through an endocytic process. HepG2 cells were pretreated with cytochalasin D and heparin, and then incubated with FITC-labelled cell permeable peptides aa 16-22, and aa 16-35 for 3 h to determine whether either of the above two mechanisms mediated cell uptake of the X-protein peptides. Control cells were treated with the X-protein peptides but were not treated with either chemical. Cytochalasin D is an F-actin elongation inhibitor, which inhibits macropinocytosis by inhibiting extension of the plasma membrane. Heparin would be expected to antagonize the binding of the peptides to cell surface heparan sulphate proteoglycans.

[3] = tested on: HepG2 cells; assay: Assay for cell permeability of X-protein peptides (fluorescence and confocal microscopy); format: cell-based, human; conditions: for uptake by HepG2 cells (cell permeability): FITC-labelled peptide 10 μM, 3 h, medium without FCS; for intracellular distribution (confocal slicing): FITC-labelled peptide, HepG2 cells
Description: The cells were then incubated overnight at 37° and 5% CO2, and then washed thrice with media without FCS. The X-protein peptide in 250 μl of appropriate media without FCS was added to the cells at a final concentration of 10 μM, and the slides incubated for 3 h at 37° C. and 5% CO2. The cells were washed with PBS, fixed with 4% formaldahyde in PBS for 30 min, and washed thrice with PBS. […] The slides were dried overnight in the dark, and examined by microscopy by using a Nikon E600 fluorescent microscope. Photos were taken using Nikon ACT-1 software. For further examination, slides were then examined by confocal microscopy using a Leica TCS-SP2 confocal microscope.

[4] = tested on: nonadherent erythrocytes and platelets; assay: Peptide uptake in whole blood; format: cell-based; conditions: whole blood in 10 mM citrate buffer, 3 h
Description: Whole blood was incubated with the fluoresceinated X-protein cell-permeable peptide aa 16-22 for 3 h to determine whether erythrocytes and platelets are able to take up the peptide. Blood was collected from a finger prick and suspended in 10 mM citrate buffer to prevent the blood clotting. After incubation with peptide the cells were washed in PBS and a blood smear prepared on a glass slide. The cells were stained with Diff-Quik.

[5] = listed as X-protein cell-permeable peptide 16-22

Row | Substance | binding to peptide 1-50 (fluorescence) [1] | effect of heparin pretreatment on peptide entry ([2]; listed as aa 16-35) | effect of cytochalasin D pretreatment on peptide entry [2] | uptake by HepG2 cells (cell permeability) ([3]; listed as aa 16-35) | intracellular distribution (confocal slicing) ([3]; listed as aa 16-35) | effect of heparin pretreatment on peptide entry ([2]; listed as aa 16-22) | uptake by erythrocytes and platelets [4, 5] | uptake by erythrocytes and platelets ([4]; listed as X-protein cell-permeable peptide aa 16-22) | uptake by HepG2 cells (cell permeability) [3, 5] | uptake by HepG2 cells (cell permeability) ([3]; listed as aa 16-22) | intracellular distribution (confocal slicing) ([3]; listed as aa 16-22) | uptake of the peptide, cells positive ([3]; HepG2, 3 h, no FCS)
1 | FITC-Acp-LCLRPVGAESRGRPVSGPFG [Peptide 16-35] | bound significantly more strongly to peptide 1-50; also recorded: binds to the X-protein N-terminal peptide 1-50 | dependent on heparin binding; also recorded: effectively blocked peptide entry into the cells | no effect on the entry of the peptides into the cell | cell-permeable; also recorded: readily taken up by the cells | taken up into the cytoplasm and nucleus; also recorded: taken up into the cell cytoplasm, as well as into the nucleus |  |  |  |  |  |  | 
2 | FITC-LCLRPVG ({FITC}-LCLRPVG) [Peptide 16-22] | could not match the strong binding shown by the parental peptide 16-35 |  | no effect on the entry of the peptides into the cell |  |  | dependent on heparin binding; also recorded: effectively blocked peptide entry into the cells | does not enter | None of the cell types present | able to enter | cell-permeable, being taken up by cells at a level equivalent to that of the parental peptide aa 16-35; also recorded: taken up into the cells | taken up into both the cytoplasm and nucleus of cells | > 90 % cells positive
